Assay results reported in PubChem BioAssay AID1259407 (Chemical Carcinogenesis Research Information System (CCRIS), 2018).
The source made the active and inactive calls. How the calls were made is not given here.

Tested on: CCRIS mutagenicity, Ames/micronucleus/aberration tests
Test: CCRIS mutagenicity studies

Measured: mutagenic call

CCOP(=S)(OCC(C)C)SCCl (centres undefined)
inactive: Test System: AMES SALMONELLA TYPHIMURIUM, Strain/Indicator: TA98, Metabolic Activation: NONE inactive; negative | Test System: AMES SALMONELLA TYPHIMURIUM, Strain/Indicator: TA98, Metabolic Activation: NONE, Method: STANDARD PLATE inactive; negative | Test System: AMES SALMONELLA TYPHIMURIUM, Strain/Indicator: TA98, Metabolic Activation: RAT, LIVER, S-9, SODIUM PHENOBARBITAL, Method: STANDARD PLATE inactive; negative | Test System: AMES SALMONELLA TYPHIMURIUM, Strain/Indicator: TA98, Metabolic Activation: S-9 inactive; negative | Test System: AMES SALMONELLA TYPHIMURIUM, Strain/Indicator: TA100, Metabolic Activation: NONE inactive; negative | Test System: AMES SALMONELLA TYPHIMURIUM, Strain/Indicator: TA100, Metabolic Activation: NONE, Method: STANDARD PLATE inactive; negative | Test System: AMES SALMONELLA TYPHIMURIUM, Strain/Indicator: TA100, Metabolic Activation: RAT, LIVER, S-9, SODIUM PHENOBARBITAL, Method: STANDARD PLATE inactive; negative | Test System: AMES SALMONELLA TYPHIMURIUM, Strain/Indicator: TA100, Metabolic Activation: S-9 inactive; negative | Test System: E. COLI, Strain/Indicator: WP2, Metabolic Activation: NONE inactive; negative | Test System: E. COLI, Strain/Indicator: WP2, Metabolic Activation: RAT, LIVER, S-9, SODIUM PHENOBARBITAL, Method: STANDARD PLATE inactive; negative | Test System: E. COLI, Strain/Indicator: WP2, Metabolic Activation: S-9 inactive; negative | Test System: E. COLI, Strain/Indicator: WP2 UVRA, Metabolic Activation: NONE inactive; negative | Test System: E. COLI, Strain/Indicator: WP2 UVRA, Metabolic Activation: RAT, LIVER, S-9, SODIUM PHENOBARBITAL, Method: STANDARD PLATE inactive; negative | Test System: E. COLI, Strain/Indicator: WP2 UVRA, Metabolic Activation: S-9 inactive; negative
